Source: patent US10994015B2, “EGFR proteolysis targeting chimeric molecules and associated methods of use” (Arvinas Operations, Inc., priority 2016, dated 2021)

How the values were obtained:
[1] = target: EGFR L858R/T790M double mutant (H1975) (Homo sapiens (Human), UniProt P00533, L858R/T790M); assay: EGFR protein degradation assay (Western blot); assay type: cell-based; conditions: 72 hours, 300 nM to 10 nM
Summary of the method: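 Cells carrying the relevant EGFR form were plated at 300,000 cells per well in 6-well plates and left to attach overnight. After washing in ice-cold PBS, cells were lysed in 400 μl lysis buffer with protease inhibitors, scraped, and clarified at 10 000 rpm for 10 minutes. EGFR levels were then assessed by Western blot with tubulin as loading control.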

HER3 = HER3 (Homo sapiens (Human), UniProt P21860); assay: TR-FRET assay for ERBB kinases; assay type: biochemical; conditions: geometric mean if measured more than once
Sequence of HER3 (P21860 20-1342, species assumed): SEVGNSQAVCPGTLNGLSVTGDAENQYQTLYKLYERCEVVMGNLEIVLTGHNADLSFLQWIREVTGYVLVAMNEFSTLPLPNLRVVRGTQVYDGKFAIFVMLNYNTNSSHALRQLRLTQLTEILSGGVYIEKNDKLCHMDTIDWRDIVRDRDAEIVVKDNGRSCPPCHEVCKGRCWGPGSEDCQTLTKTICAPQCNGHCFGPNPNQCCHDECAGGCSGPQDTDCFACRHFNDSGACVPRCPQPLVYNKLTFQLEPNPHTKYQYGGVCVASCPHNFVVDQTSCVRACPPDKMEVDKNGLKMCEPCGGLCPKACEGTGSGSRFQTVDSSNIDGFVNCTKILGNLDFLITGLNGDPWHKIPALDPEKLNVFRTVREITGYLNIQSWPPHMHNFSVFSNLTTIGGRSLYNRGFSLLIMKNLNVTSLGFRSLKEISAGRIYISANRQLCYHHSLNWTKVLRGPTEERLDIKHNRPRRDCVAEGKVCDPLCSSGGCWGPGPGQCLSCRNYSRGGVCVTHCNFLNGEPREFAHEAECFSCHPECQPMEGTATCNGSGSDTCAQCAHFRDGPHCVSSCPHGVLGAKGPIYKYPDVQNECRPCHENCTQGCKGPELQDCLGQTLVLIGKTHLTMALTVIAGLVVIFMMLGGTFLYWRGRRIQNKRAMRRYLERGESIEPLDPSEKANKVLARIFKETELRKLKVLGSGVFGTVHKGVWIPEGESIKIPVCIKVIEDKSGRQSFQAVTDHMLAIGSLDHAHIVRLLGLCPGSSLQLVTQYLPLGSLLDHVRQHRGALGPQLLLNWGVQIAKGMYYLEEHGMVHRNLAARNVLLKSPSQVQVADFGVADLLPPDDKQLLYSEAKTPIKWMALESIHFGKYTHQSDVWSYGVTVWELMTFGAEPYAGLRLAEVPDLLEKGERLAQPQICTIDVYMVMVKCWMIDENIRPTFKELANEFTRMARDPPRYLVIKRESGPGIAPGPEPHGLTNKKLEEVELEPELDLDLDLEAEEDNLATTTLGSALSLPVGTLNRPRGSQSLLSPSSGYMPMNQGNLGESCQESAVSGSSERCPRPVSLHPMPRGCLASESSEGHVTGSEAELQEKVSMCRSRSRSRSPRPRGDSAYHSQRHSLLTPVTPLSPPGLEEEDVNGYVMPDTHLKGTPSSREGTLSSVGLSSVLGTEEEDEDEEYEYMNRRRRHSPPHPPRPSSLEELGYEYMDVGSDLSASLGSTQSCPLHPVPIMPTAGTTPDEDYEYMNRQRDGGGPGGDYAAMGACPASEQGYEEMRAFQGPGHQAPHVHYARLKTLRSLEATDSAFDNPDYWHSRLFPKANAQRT

EGFR L858R/T790M = EGFR L858R/T790M (Homo sapiens (Human), UniProt P00533, L858R/T790M); assay: TR-FRET assay for ERBB kinases; assay type: biochemical; conditions: geometric mean if measured more than once
Summary of the method: (§1)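 Phosphotyrosine on fluorescein poly-GluTyr was detected by Tb-pY20 antibody after EDTA quench, reading emission at 520 and 490 nm. The kinase was exposed to compound for 10 min before an ATP-containing substrate mix (3 mM ATP as added) was introduced. Turnover lasted 10 min at room temperature.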

EGFR L858R/T790M/C797S = EGFR L858R/T790M/C797S (Homo sapiens (Human), UniProt P00533, C797S/L858R/T790M); assay: TR-FRET assay for ERBB kinases; assay type: biochemical; conditions: geometric mean if measured more than once
Sequence of EGFR L858R/T790M/C797S (P00533 25-1210 T790M/C797S/L858R): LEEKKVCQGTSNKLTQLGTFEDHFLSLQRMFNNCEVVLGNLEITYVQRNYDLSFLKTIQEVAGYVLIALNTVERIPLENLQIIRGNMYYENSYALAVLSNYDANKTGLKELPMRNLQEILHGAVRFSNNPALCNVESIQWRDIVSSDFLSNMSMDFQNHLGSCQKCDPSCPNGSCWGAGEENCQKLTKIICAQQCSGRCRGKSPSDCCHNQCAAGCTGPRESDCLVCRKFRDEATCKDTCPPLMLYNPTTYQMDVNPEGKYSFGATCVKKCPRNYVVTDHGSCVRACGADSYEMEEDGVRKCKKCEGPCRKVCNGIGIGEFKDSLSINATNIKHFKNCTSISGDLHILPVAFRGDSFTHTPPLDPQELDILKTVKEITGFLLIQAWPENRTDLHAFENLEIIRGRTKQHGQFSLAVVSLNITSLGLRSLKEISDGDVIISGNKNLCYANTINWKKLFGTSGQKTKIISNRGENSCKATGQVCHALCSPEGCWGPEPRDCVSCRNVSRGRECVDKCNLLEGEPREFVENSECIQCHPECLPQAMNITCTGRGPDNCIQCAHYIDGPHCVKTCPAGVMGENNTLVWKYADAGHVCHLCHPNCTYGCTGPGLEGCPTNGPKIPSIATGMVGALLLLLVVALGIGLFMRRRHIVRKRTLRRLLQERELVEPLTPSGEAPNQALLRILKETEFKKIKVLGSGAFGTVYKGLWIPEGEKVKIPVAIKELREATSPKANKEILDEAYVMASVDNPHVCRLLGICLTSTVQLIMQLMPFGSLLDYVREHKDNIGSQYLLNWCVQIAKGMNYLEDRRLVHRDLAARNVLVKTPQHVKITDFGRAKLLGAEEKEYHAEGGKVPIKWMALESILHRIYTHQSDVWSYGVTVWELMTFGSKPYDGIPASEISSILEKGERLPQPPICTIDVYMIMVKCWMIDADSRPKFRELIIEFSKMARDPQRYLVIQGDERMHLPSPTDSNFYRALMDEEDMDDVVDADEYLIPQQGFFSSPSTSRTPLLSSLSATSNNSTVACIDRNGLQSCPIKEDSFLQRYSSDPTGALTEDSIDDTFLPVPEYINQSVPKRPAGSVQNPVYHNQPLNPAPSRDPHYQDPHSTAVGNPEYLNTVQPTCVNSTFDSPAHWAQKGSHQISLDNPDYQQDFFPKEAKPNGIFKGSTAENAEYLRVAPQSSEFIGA
Summary of the method: as §1

EGFR WT = EGFR WT (Homo sapiens (Human), UniProt P00533); assay: TR-FRET assay for ERBB kinases; assay type: biochemical; conditions: geometric mean if measured more than once
Summary of the method: as §1

EGFR Exon20NPG = EGFR Exon20NPG (Homo sapiens (Human), UniProt P00533, INS770NPG); assay: TR-FRET assay for ERBB kinases; assay type: biochemical; conditions: geometric mean if measured more than once
Sequence of EGFR Exon20NPG (P00533 other isoform, or with tags, fused parts or gaps del 1-694/ins NPG behind 770 limits assumed): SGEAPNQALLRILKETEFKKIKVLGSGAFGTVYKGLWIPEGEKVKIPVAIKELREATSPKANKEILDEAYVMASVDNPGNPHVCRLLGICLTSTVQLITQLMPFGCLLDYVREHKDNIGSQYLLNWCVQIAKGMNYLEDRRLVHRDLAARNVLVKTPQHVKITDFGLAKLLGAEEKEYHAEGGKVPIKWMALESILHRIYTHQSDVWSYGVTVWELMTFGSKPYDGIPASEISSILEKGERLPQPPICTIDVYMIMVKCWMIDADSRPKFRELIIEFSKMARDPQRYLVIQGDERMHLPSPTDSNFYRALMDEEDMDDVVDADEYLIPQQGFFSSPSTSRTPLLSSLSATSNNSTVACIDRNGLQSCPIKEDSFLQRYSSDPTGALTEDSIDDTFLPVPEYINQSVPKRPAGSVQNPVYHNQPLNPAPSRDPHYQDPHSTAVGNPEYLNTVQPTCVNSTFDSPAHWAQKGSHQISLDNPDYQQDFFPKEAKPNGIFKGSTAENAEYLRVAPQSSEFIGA
Summary of the method: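 Compounds pre-incubated 10 min with kinase in HEPES pH 7.5 buffer (MgCl2, DTT, Pluronic), then reaction started with substrate mix (3 mM ATP, 30 µM fluorescein-poly-GluTyr, stock levels) for 10 min at room temperature. EDTA-quenched, detected by Tb-pY20 antibody TR-FRET (520/490 nm emission).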

[2] = target: EGFR L858R/T790M/C797S triple mutant (H520*) (Homo sapiens (Human), UniProt P00533, C797S/L858R/T790M); assay: EGFR protein degradation assay (Western blot); assay type: cell-based; conditions: 72 hours, 300 nM to 10 nM
Sequence of EGFR L858R/T790M/C797S triple mutant (H520*) (P00533 25-1210 T790M/C797S/L858R): as the sequence (P00533 25-1210 T790M/C797S/L858R) above
Summary of the method: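 EGFR loss in the triple-mutant line measured by immunoblot: clarified lysates normalised by BCA, run on 4-12% Bis-Tris gels, blotted to PVDF, probed with HRP anti-rabbit secondary. Before lysis, cells were dosed from 1, 0.3, 0.1, 0.03 and 0.01 mM DMSO stocks (not final concentrations) after overnight culture at 37° C.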

## COC1CCN(c2nccc(Nc3cc4c(cn3)nc(COCCOCC(=O)N[C@H](C(=O)N3C[C@@H](O)C[C@@H]3C(=O)N[C@@H](C)c3ccc(-c5scnc5C)cc3)C(C)(C)C)n4C(C)C)n2)CC1 [compound 77]
[1]
  EGFR protein remaining, EGFR L858R/T790M double mutant: C (>80% EGFR protein remaining after 72 hours of incubation with the test compound at a concentration of 300 nM)
HER3
  IC50: > 30 µM
EGFR L858R/T790M
  IC50: 9.1 µM
EGFR L858R/T790M/C797S
  IC50: 9.4 µM
EGFR WT
  IC50: 24 µM
EGFR Exon20NPG
  IC50: 12 µM

## Cc1ncsc1-c1ccc([C@H](C)NC(=O)[C@H]2C[C@H](O)CN2C(=O)[C@@H](NC(=O)COCCOCCOCC#Cc2cccc3c2C(=O)N(C(C(=O)Nc2nccs2)c2cc(F)ccc2O)C3)C(C)(C)C)cc1 (stereo partly drawn) [compound 84]
[1]
  EGFR protein remaining, EGFR L858R/T790M double mutant: C (>80% EGFR protein remaining after 72 hours of incubation with the test compound at a concentration of 300 nM)
HER3
  IC50: > 30 µM
EGFR L858R/T790M
  IC50: 0.68 µM
EGFR L858R/T790M/C797S
  IC50: 0.27 µM
EGFR WT
  IC50: 1.8 µM
EGFR Exon20NPG
  IC50: 5.3 µM

## COC1CCN(c2nccc(Nc3cc4c(cn3)nc(COCCOCCOCCOCC(=O)N[C@H](C(=O)N3C[C@@H](O)C[C@@H]3C(=O)N[C@@H](C)c3ccc(-c5scnc5C)cc3)C(C)(C)C)n4C(C)C)n2)CC1 [compound 79]
[1]
  EGFR protein remaining, EGFR L858R/T790M double mutant: C (>80% EGFR protein remaining after 72 hours of incubation with the test compound at a concentration of 300 nM)
HER3
  IC50: > 30 µM
EGFR L858R/T790M
  IC50: 29 µM
EGFR L858R/T790M/C797S
  IC50: 7.6 µM
EGFR WT
  IC50: > 30 µM
EGFR Exon20NPG
  IC50: > 30 µM

## COC1CCN(c2nccc(Nc3cc4c(cn3)nc(COCCOCCOCCOCCOCC(=O)N[C@H](C(=O)N3C[C@H](O)C[C@H]3C(=O)N[C@@H](C)c3ccc(-c5scnc5C)cc3)C(C)(C)C)n4C(C)C)n2)CC1 [Example 81, (2S,4R)-1-((S)-18-(tert-butyl)-1-(1-isopropyl-6-((2-(4-methoxypiperidin-1-yl)pyrimidin-4-yl)amino)-1H-imidazo[4,5-c]pyridin-2-yl)-16-oxo-2,5,8,11,14-pentaoxa-17-azanonadecan-19-oyl)-4-hydroxy-N—((S)-1-(4-(4-methylthiazol-5-yl)phenyl)ethyl)pyrrolidine-2-carboxamide]
[1]
  EGFR protein remaining, EGFR L858R/T790M double mutant: C (>80% EGFR protein remaining after 72 hours of incubation with the test compound at a concentration of 300 nM)
HER3
  IC50: > 30 µM
EGFR L858R/T790M
  IC50: 8.6 µM
EGFR L858R/T790M/C797S
  IC50: > 30 µM
EGFR WT
  IC50: 2.4 µM
EGFR Exon20NPG
  IC50: 7.1 µM

## O=C1CCC(N2C(=O)c3ccc(NCCOCCOCC#Cc4cccc5c4C(=O)N(C(C(=O)Nc4nccs4)c4cc(F)ccc4O)C5)cc3C2=O)C(=O)N1 (stereo not drawn) [compound 83]
[1]
  EGFR protein remaining, EGFR L858R/T790M double mutant: C (>80% EGFR protein remaining after 72 hours of incubation with the test compound at a concentration of 300 nM)
HER3
  IC50: > 30 µM
EGFR L858R/T790M
  IC50: 2.5 µM
EGFR L858R/T790M/C797S
  IC50: 1.2 µM
EGFR WT
  IC50: 3 µM
EGFR Exon20NPG
  IC50: > 30 µM

## Cc1ncsc1-c1ccc([C@H](C)NC(=O)[C@@H]2C[C@@H](O)CN2C(=O)[C@@H](NC(=O)CN2CCN(CCCC#Cc3cccc4c3C(=O)N(C(C(=O)Nc3nccs3)c3cc(F)ccc3O)C4)CC2)C(C)(C)C)cc1 (stereo partly drawn) [Example 80, (2S,4R)-1-((2S)-2-(2-(4-(5-(2-(1-(5-fluoro-2-hydroxyphenyl)-2-oxo-2-(thiazol-2-ylamino)ethyl)-3-oxoisoindolin-4-yl)pent-4-yn-1-yl)piperazin-1-yl)acetamido)-3,3-dimethylbutanoyl)-4-hydroxy-N—((S)-1-(4-(4-methylthiazol-5-yl)phenyl)ethyl)pyrrolidine-2-carboxamide]
[1]
  EGFR protein remaining, EGFR L858R/T790M double mutant: C (>80% EGFR protein remaining after 72 hours of incubation with the test compound at a concentration of 300 nM)
HER3
  IC50: > 30 µM
[2]
  EGFR protein remaining, EGFR L858R/T790M/C797S triple mutant: C (>80% EGFR protein remaining after 72 hours of incubation with the test compound at a concentration of 300 nM)
EGFR L858R/T790M
  IC50: 4.7 µM
EGFR L858R/T790M/C797S
  IC50: 2.2 µM
EGFR WT
  IC50: 4.7 µM
EGFR Exon20NPG
  IC50: 13 µM

## COC1CCN(c2nccc(Nc3cc4c(cn3)nc(COCCON3CCN(c5ccc6c(c5)C(=O)N(C5CCC(=O)NC5=O)C6=O)CC3)n4C(C)C)n2)CC1 (stereo not drawn) [compound 72]
[1]
  EGFR protein remaining, EGFR L858R/T790M double mutant: C (>80% EGFR protein remaining after 72 hours of incubation with the test compound at a concentration of 300 nM)
HER3
  IC50: > 30 µM
EGFR L858R/T790M
  IC50: > 30 µM
EGFR L858R/T790M/C797S
  IC50: 30 µM
EGFR WT
  IC50: > 30 µM
EGFR Exon20NPG
  IC50: 22 µM

## O=C1CCC(N2C(=O)c3ccc(NCCOCCOCCOCC#Cc4cccc5c4C(=O)N(C(C(=O)Nc4nccs4)c4cc(F)ccc4O)C5)cc3C2=O)C(=O)N1 (stereo not drawn) [Example 82, 2-(7-(3-(2-(2-(2-((2-(2,6-dioxopiperidin-3-yl)-1,3-dioxoisoindolin-5-yl)amino)ethoxy)ethoxy)ethoxy)prop-1-yn-1-yl)-1-oxoisoindolin-2-yl)-2-(5-fluoro-2-hydroxyphenyl)-N-(thiazol-2-yl)acetamide]
[1]
  EGFR protein remaining, EGFR L858R/T790M double mutant: C (>80% EGFR protein remaining after 72 hours of incubation with the test compound at a concentration of 300 nM)
HER3
  IC50: > 30 µM
EGFR L858R/T790M
  IC50: 0.77 µM
EGFR L858R/T790M/C797S
  IC50: 0.45 µM
EGFR WT
  IC50: 3.8 µM
EGFR Exon20NPG
  IC50: > 30 µM

## Cc1ncsc1-c1ccc([C@H](C)NC(=O)[C@H]2C[C@H](O)CN2C(=O)[C@@H](NC(=O)CN2CCN(CCCOCC#Cc3cccc4c3C(=O)N(C(C(=O)Nc3nccs3)c3cc(F)ccc3O)C4)CC2)C(C)(C)C)cc1 (stereo partly drawn) [compound 90]
[1]
  EGFR protein remaining, EGFR L858R/T790M double mutant: C (>80% EGFR protein remaining after 72 hours of incubation with the test compound at a concentration of 300 nM)
HER3
  IC50: 29 µM
[2]
  EGFR protein remaining, EGFR L858R/T790M/C797S triple mutant: C (>80% EGFR protein remaining after 72 hours of incubation with the test compound at a concentration of 300 nM)
EGFR L858R/T790M
  IC50: 0.74 µM
EGFR L858R/T790M/C797S
  IC50: 0.69 µM
EGFR WT
  IC50: 1.3 µM
EGFR Exon20NPG
  IC50: 3.4 µM

## COC1CCN(c2nccc(Nc3cc4c(cn3)nc(COCCN3CCN(CCOc5ccc6c(c5)C(=O)N(C5CCC(=O)NC5=O)C6=O)CC3)n4C(C)C)n2)CC1 (stereo not drawn) [Example 76, 2-(2,6-dioxopiperidin-3-yl)-5-(2-(4-(2-((1-isopropyl-6-((2-(4-methoxypiperidin-1-yl)pyrimidin-4-yl)amino)-1H-imidazo[4,5-c]pyridin-2-yl)methoxy)ethyl)piperazin-1-yl)ethoxy)isoindoline-1,3-dione]
[1]
  EGFR protein remaining, EGFR L858R/T790M double mutant: C (>80% EGFR protein remaining after 72 hours of incubation with the test compound at a concentration of 300 nM)
HER3
  IC50: 8.6 µM
[2]
  EGFR protein remaining, EGFR L858R/T790M/C797S triple mutant: C (>80% EGFR protein remaining after 72 hours of incubation with the test compound at a concentration of 300 nM)
EGFR L858R/T790M
  IC50: 0.36 µM
EGFR L858R/T790M/C797S
  IC50: 0.036 µM
EGFR WT
  IC50: 17 µM
EGFR Exon20NPG
  IC50: 14 µM

## COC1CCN(c2nccc(Nc3cc4c(cn3)nc(COCCCN3CCN(CCCOc5ccc6c(c5)C(=O)N(C5CCC(=O)NC5=O)C6=O)CC3)n4C(C)C)n2)CC1 (stereo not drawn) [compound 89]
[1]
  EGFR protein remaining, EGFR L858R/T790M double mutant: C (>80% EGFR protein remaining after 72 hours of incubation with the test compound at a concentration of 300 nM)
HER3
  IC50: > 30 µM
EGFR L858R/T790M
  IC50: 1.6 µM
EGFR L858R/T790M/C797S
  IC50: 0.65 µM
EGFR WT
  IC50: > 30 µM
EGFR Exon20NPG
  IC50: > 30 µM

## COC1CCN(c2nccc(Nc3cc4c(cn3)nc(COCCOCCOCCOCCON3CCN(c5ccc6c(c5)C(=O)N(C5CCC(=O)NC5=O)C6=O)CC3)n4C(C)C)n2)CC1 (stereo not drawn) [compound 75]
[1]
  EGFR protein remaining, EGFR L858R/T790M double mutant: C (>80% EGFR protein remaining after 72 hours of incubation with the test compound at a concentration of 300 nM)
HER3
  IC50: > 30 µM
EGFR L858R/T790M
  IC50: > 30 µM
EGFR L858R/T790M/C797S
  IC50: > 30 µM
EGFR WT
  IC50: > 30 µM
EGFR Exon20NPG
  IC50: > 30 µM
